Here are results for 11 molecules from BindingDB's records for doi:10.1021/jm950639r (Eli Lilly, 1996).

The structures appear in SMILES notation.

Test in all cases: HIV-1 RT Assay
Experiment [1] has as its target T1, Gag-Pol polyprotein [588-1127,Y768C]/[588-1147,Y768C] (Human immunodeficiency virus 1, UniProt P04585, Y768C).
T1 construct: 588-1127; 588-1147

The target in experiment [2] is T2, Gag-Pol polyprotein [588-1127,L687I]/[588-1147,L687I] (Human immunodeficiency virus 1, UniProt P04585, L687I).
T2 construct: 588-1127; 588-1147

Experiment [3] deals with T3, Gag-Pol polyprotein [588-1027]/[588-1147] (Human immunodeficiency virus 1, UniProt P04585).
T3 construct: 588-1027; 588-1147

For the molecule `COCc1ccc(F)c(CCNC(=S)Nc2ccc(Br)cn2)c1F` [1-(5-bromopyridin-2-yl)-3-{2-[2,6-difluoro-3-(methoxymethyl)phenyl]ethyl}thiourea], in experiment [1] (pH 7.8, 37 °C), it took 100 nM to reach half-maximal inhibition (IC50).

`S=C(NCCc1c[nH]c2ccccc12)Nc1ccc(Br)cn1` [1-(5-bromopyridin-2-yl)-3-[2-(1H-indol-3-yl)ethyl]thiourea]: the concentration for half-maximal inhibition (IC50) (commonly the concentration needed to halve the response being measured) in experiment [2] is greater than 2500 nM.

For the molecule `S=C(NCCc1nc2ccccc2[nH]1)Nc1ccc(Br)cn1` [N-[2-(2-Benzimidazolyl)ethyl]-N-[2-(5-bromopyridyl)]-thiourea], the figures for the concentration for half-maximal inhibition (IC50) in experiment [2], in experiment [3] and in experiment [1] were greater than 2500 nM, 21 nM and 1860 nM, respectively.

Regarding `S=C(NCCn1nc2ccccc2n1)Nc1ccc(Br)cn1` [3-[2-(2H-1,2,3-benzotriazol-2-yl)ethyl]-1-(5-bromopyridin-2-yl)thiourea], the 50% inhibitory concentration (IC50) in experiment [1] is 100 nM.

`CC(C)=CCN1Cc2cc(Cl)cc3[nH]c(=S)n(c23)C[C@@H]1C` [(11S)-6-chloro-11-methyl-10-(3-methylbut-2-en-1-yl)-1,3,10-triazatricyclo[6.4.1.0^{4,13}]trideca-4,6,8(13)-triene-2-thione]: the IC50 in experiment [2] is 32200 nM; in experiment [1], 13000 nM.

Consider `COc1ccc2[nH]cc(CC/N=C(\S)Nc3ccc(Br)cn3)c2c1` [1-(5-bromopyridin-2-yl)-3-[2-(5-methoxy-1H-indol-3-yl)ethyl]thiourea], for which the IC50 in experiment [2] is greater than 2500 nM.

As for `Cc1cc2nn(CCNC(=S)Nc3ccc(Br)cn3)nc2cc1C` [1-(5-bromopyridin-2-yl)-3-[2-(5,6-dimethyl-2H-1,2,3-benzotriazol-2-yl)ethyl]thiourea], the 50% inhibitory concentration (IC50) is greater than 2500 nM in experiment [2] and 100 nM in experiment [1].

Turning to `CC(=O)NCc1ccc(F)c(CCNC(=S)Nc2ccc(Br)cn2)c1F` [N-[2-(3-(Acetamidomethyl)-2,6-difluorophenethyl)]-N-[2-(5-bromopyridyl)]thiourea], the IC50 in experiment [2] (pH 7.8, 37 °C) is greater than 2000 nM; in experiment [1] (pH 7.8, 37 °C), greater than 2000 nM.

Regarding `CCOc1ccc(F)c(CCNC(=S)Nc2ncc(C(F)(F)F)s2)c1Cl` [1-[2-(2-chloro-3-ethoxy-6-fluorophenyl)ethyl]-3-[5-(trifluoromethyl)-1,3-thiazol-2-yl]thiourea], the values for the concentration for half-maximal inhibition (IC50) in experiment [2], in experiment [3] and in experiment [1] were 7000 nM, 47 nM and 7000 nM, respectively.

Consider `CCOc1ccc(OCC)c(CCNC(=S)Nc2ccc(Br)cn2)c1` [1-(5-bromopyridin-2-yl)-3-[2-(2,5-diethoxyphenyl)ethyl]thiourea], for which the IC50 in experiment [3] was determined as 18 nM.

`CNC(=O)c1ccc(F)c(CC/N=C(\S)Nc2ccc(Br)cn2)c1F` [3-(2-{[(5-bromopyridin-2-yl)carbamothioyl]amino}ethyl)-2,4-difluoro-N-methylbenzamide]: the IC50 in experiment [2] (pH 7.8, 37 °C) was greater than 2000 nM; in experiment [1] (pH 7.8, 37 °C) it was greater than 2000 nM.
